Tests used:
Type in all cases: cell-based, Chinese hamster
[1] = tested on: IgG-expressing CHO cell line (anti-human α9 antibody RY9A2v12 (M34L) 012); assay: Fed-batch culture with deoxyuridine, thymidine and/or deoxycytidine (Example 4); conditions: 25 mg/L
Protocol: Using a culture medium for animal cells as a cell growth medium, fed-batch culture of an IgG-expressing CHO cell line (a CHO cell line in which an anti-human α9 antibody ([…]) 012) had been recombinantly expressed, as described in WO 2009/088064) was started at an initial viable cell density of 1×10^6 cells/mL under the conditions of 36.5° C. and 5% CO2. At the start of culture, deoxyuridine, thymidine, and/or deoxycytidine was/were each added to a final concentration of 0 or 25 mg/L according to Table 2. The culture was continued until day 14 of culture while a feed culture medium was added everyday from day 2 of culture. Sampling was done at appropriate timings. Viable cell densities were measured by trypan blue exclusion method, and antibody concentrations were measured by protein A column HPLC. […] [table]

[2] = tested on: IgG-expressing CHO cell line (anti-human TSLP receptor antibody, fully human T7-27); assay: Fed-batch culture with deoxyuridine added on day 2 (Example 1); trypan blue exclusion, protein A column HPLC
Protocol: Using a culture medium for animal cells as a cell growth medium, fed-batch culture of an IgG-expressing CHO cell line (a CHO cell line in which an anti-human thymic stromal lymphopoietin (TSLP) receptor antibody (fully human T7-27) had been recombinantly expressed, as described in WO 2015/020193) was started at an initial viable cell density of 1×10^6 cells/mL under the conditions of 36.5° C. and 5% CO2. On day 2 of culture, deoxyuridine was added to cultures to a final concentration of 10, 25, 50, 100 or 200 mg/L. The culture was continued until day 14 of culture while a feed medium was added everyday from day 2 of culture. Sampling was done at appropriate timings. Viable cell densities were measured by trypan blue exclusion study, and antibody concentrations were measured by protein A column HPLC. […] It was also observed that even addition of […] deoxyuridine enhancedantibody production during the cell culture until day 10 to day 12.

[3] = tested on: IgG-expressing CHO cell line (anti-human TSLP receptor antibody, fully human T7-27); assay: Fed-batch culture with deoxyuridine in the presence of thymidine and deoxycytidine (Example 2); conditions: for highest viable cell density observed during the 14 days of culture: at start of culture; for antibody concentration on the final day of culture: day 14
Protocol: Using a culture medium for animal cells as a cell growth medium, fed-batch culture of an IgG-expressing CHO cell line (a CHO cell line in which an anti-human TSLP receptor antibody (fully human T7-27) had been recombinantly expressed, as described in WO 2015/020193) was started at an initial viable cell density of 1×10^6 cells/mL under the conditions of 36.5° C. and 5% CO2. At the start of culture, thymidine and deoxycytidine hydrochloride (in the working examples given in the subject specification, deoxycytidine hydrochloride was actually used as deoxycytidine, and the concentrations of deoxycytidine hydrochloride are expressed by using the converted concentration value of deoxycytidine from deoxycytidine hydrochloride.) were each added to cultures to a final concentration of 25 mg/L, and deoxyuridine was added to a final concentration of 10, 25, 40, 55, 70 or 85 mg/L. The culture was continued until day 14 of culture while a feed culture medium was added everyday from day 2 of culture. Sampling was done at appropriate timings. Viable cell densities were measured by trypan blue exclusion method, and antibody concentrations were measured by protein A column HPLC.

[4] = tested on: IgG-expressing CHO cell line (anti-human TSLP receptor antibody, fully human T7-27); assay: Fed-batch culture with deoxyuridine, thymidine and deoxycytidine added on day 2 (Example 3); conditions: 25 mg/L of each added component
Protocol: Using a culture medium for animal cells as a cell growth medium, fed-batch culture of an IgG-expressing CHO cell line (a CHO cell line in which an anti-human TSLP receptor antibody (fully human T7-27) had been recombinantly expressed, as described in WO 2015/020193) was started at an initial viable cell density of 1×10^6 cells/mL under the conditions of 36.5° C. and 5% CO2. On day 2 of culture, deoxyuridine was added to a final concentration of 25 mg/L, and thymidine and deoxycytidine were each added to cultures to a final concentration of 0 or 25 mg/L according to Table 1. The culture was continued until day 14 of culture while a feed culture medium was added everyday from day 2 of culture. Sampling was done at appropriate timings. Viable cell densities were measured by trypan blue exclusion method, and antibody concentrations were measured by protein A column HPLC. […] In contrast, in the case of addition of deoxyuridine in the presence of 25 mg/L each of thymidine and deoxycytidine (dU-dT-dC), the viable cell density, cell viability, and antibody concentration on the final day of the 14 days of culture were 12×10^6 cells/mL, approximately 78%, and 5.8 g/L, respectively; these values were higher than in the cases of addition of dU, addition of deoxyuridine and deoxycytidine (dU-dC), and addition of deoxyuridine and thymidine (dU-dT). […] [table]

[5] = tested on: IgG-expressing CHO cell line (anti-human α9 integrin antibody RY9A2v12 (M34L) 012); assay: Batch culture with deoxyuridine (Example 6)
Protocol: Using a culture medium for animal cells as a cell growth medium, batch culture of an IgG-expressing CHO cell line (a CHO cell line in which an anti-human α9 integrin antibody (hereinafter referred to as “anti-human α9 antibody”) (RY9A2v12 (M34L) 012) had been recombinantly expressed, as described in WO 2009/088064) was started at an initial viable cell density of 0.3×10^6 cells/mL under the conditions of 36.5° C. and 5% CO2. At the start of culture, deoxyuridine was added to cultures to a final concentration of 5, 25, 100, 500 or 1000 mg/L, and then the culture was continued for 5 days. Sampling was done at appropriate timings. Viable cell densities were measured bytrypan blue exclusion method, and antibody concentrations were measured by protein A column HPLC.

[6] = tested on: IgG-expressing CHO cell line (anti-human TSLP receptor antibody, fully human T7-27); assay: Fed-batch culture, comparison with uridine and thymidine (Example 7); conditions: 25 mg/L of each added component
Protocol: (§1) Using a culture medium for animal cells as a cell growth medium, fed-batch culture of an IgG-expressing CHO cell line (a CHO cell line in which an anti-human TSLP receptor antibody (fully human T7-27) had been recombinantly expressed, as described in WO 2015/020193) was started at an initial viable cell density of 1×10^6 cells/mL under the conditions of 36.5° C. and 5% CO2. At the start of culture, deoxyuridine, thymidine and deoxycytidine were each added to a final concentration of 25 mg/L. To provide comparative conditions, uridine (U) and thymidine were added, at the start of culture, at concentrations of 7 mg/L and 0.24 mg/L, respectively (these concentrations are the same as those described in Examples of EP 1818392 B1). The culture was continued under each of the different conditions described above until day 14 of culture while a feed culture medium was added everyday from day 2 of culture. Sampling was done at appropriate timings. Viable cell densities were measured by trypan blue exclusion method, and antibody concentrations were measured by protein A column HPLC.

[7] = tested on: IgG-expressing CHO cell line (anti-human α9 antibody RY9A2v12 (M34L) 012); assay: Fed-batch culture, comparison with uridine and thymidine (Example 8); conditions: 25 mg/L of each added component
Protocol: as §1, with “α9” for “TSLP receptor”, “([…]) 012)” for “(fully human T7-27)”, “2009/088064)” for “2015/020193)”, “uridine” for “uridine (U)”, “feed” for “feed culture”, “HPLC. […] In contrast, the highest viable cell densities were approximately 21×10^6 cells/mL in the case of addition of 25 mg/L deoxyuridine (dU25 mg/L), and about 31×10^6 cells/mL in the case of addition of 25 mg/L each of deoxyuridine, thymidine and deoxycytidine (dUdTdC25 mg/L); these values were higher than control.” for “HPLC.”

[8] = tested on: Fab′ fragment-expressing CHO cell line (anti-human NGF antibody Fab′ fragment 1-15 (N52D-A)-Fab′); assay: Fed-batch culture, comparison with uridine and thymidine (Example 9); conditions: 25 mg/L of each added component
Protocol: Using a culture medium for animal cells as a cell growth medium, fed-batch culture of a Fab′ fragment-expressing CHO cell line (a CHO cell line in which an anti-human NGF antibody Fab′ fragment (1-15 (N52D-A)-Fab′) had been expressed, as described in WO 2013/022083) was started at an initial viable cell density of 1×10^6 cells/mL under the conditions of 36.5° C. and 5% CO2. At the start of culture, deoxyuridine, thymidine and deoxycytidine were each added to a final concentration of 25 mg/L. To provide comparative conditions, uridine and thymidine were added, at the start of culture, at concentrations of 7 mg/L and 0.24 mg/L, respectively (these concentrations are the same as those described in Examples of EP 1818392 B1). The culture was continued under each of the different conditions described above until day 14 of culture while a feed medium was added everyday from day 2 of culture. Sampling was done at appropriate timings. Viable cell densities were measured by trypan blue exclusion method, and antibody concentrations were measured by reverse-phase HPLC.

[9] = 10 mg/L deoxyuridine with 25 mg/L each thymidine and deoxycytidine
[10] = 25 mg/L deoxyuridine with 25 mg/L each thymidine and deoxycytidine

Nc1ccn([C@H]2C[C@H](O)[C@@H](CO)O2)c(=O)n1 [deoxycytidine]
effects when added alone (viable cell density, antibody concentration) [1]: no effect

O=c1ccn([C@H]2C[C@H](O)[C@@H](CO)O2)c(=O)[nH]1 [deoxyuridine]
antibody production during the cell culture until day 10 to day 12 ([2]; 10 mg/L deoxyuridine): enhanced | highest viable cell density observed during the 14 days of culture ([2]; 25 mg/L deoxyuridine added on day 2, control about 10): about 18 ×10^6 cells/mL | antibody concentration on the final day of culture ([2]; 25 mg/L deoxyuridine added on day 2, day 14, control 3.3): 5.5 g/L | response to deoxyuridine addition (cell growth and antibody production) ([2]; any concentration tested from 10 mg/L to 200 mg/L): enhanced cell growth and antibody production | highest viable cell density observed during the 14 days of culture [3, 9]: about 27 ×10^6 cells/mL | antibody concentration on the final day of culture [3, 9]: 5.9 g/L | highest viable cell density observed during the 14 days of culture [3, 10]: approximately 32 ×10^6 cells/mL | antibody concentration on the final day of culture [3, 10]: 6.8 g/L | enhancing effects on cell growth and antibody production ([3]; deoxyuridine 25 mg/L or higher in the presence of thymidine and deoxycytidine, versus 10 mg/L): higher enhancing effects on cell growth and antibody production | antibody concentration on the final day of the 14 days of culture [4]: 5.1 g/L | cell viability on the final day of the 14 days of culture [4]: approximately 61% | viable cell density on the final day of the 14 days of culture [4]: approximately 7.6 ×10^6 cells/mL | effects when added alone (viable cell density, antibody concentration) [1]: produce effects | highest viable cell density observed during the 5 days of culture ([5]; 100 mg/L deoxyuridine at start of batch culture, control approximately 7): approximately 10 ×10^6 cells/mL | effect on cell growth ([5]; any concentration tested from 5 mg/L to 500 mg/L): enhancing effect on cell growth | highest viable cell density observed during the 14 days of culture ([6]; at start of culture, control approximately 12): approximately 21 ×10^6 cells/mL | antibody concentration on the final day of culture ([6]; day 14, control approximately 2.9): approximately 4.6 g/L | highest viable cell density observed during the 14 days of culture ([7]; at start of culture, control about 16): approximately 21 ×10^6 cells/mL | antibody concentrations during culture versus control ([7]; FIG. 16): higher levels than control | highest viable cell density observed during the 14 days of culture ([8]; at start of culture, control approximately 14): approximately 26 ×10^6 cells/mL | protein concentration on the final day of culture ([8]; day 14, control approximately 2.2): approximately 3.1 g/L

Cc1cn([C@H]2C[C@H](O)[C@@H](CO)O2)c(=O)[nH]c1=O [thymidine]
effects when added alone (viable cell density, antibody concentration) [1]: produce effects

From patent US11286459B2, “Cell culturing method using nucleic acid-containing medium” (Astellas Pharma Inc., priority 2015, dated 2022)
